Experimental data: ChEMBL document CHEMBL1201862, “PubChem BioAssay data set” (2004)
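Grown in 96-well plates, cells were treated for 48 hours with each compound at five concentrations. Insufficient inhibition: endpoint recorded as highest concentration tested. GI50 is the concentration that inhibits growth by half.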 Activity calls are given as the source filed them. Cut-off read from the data, not from the text of the source: active = GI50 up to about 1.1 µM and inactive = higher.

What was measured:
Assay in all cases: NCI anticancer screen, dose series, 48 h
[1] = system: SF-268
[2] = system: NCI-H522
[3] = system: A549
[4] = system: DMS-114
[5] = system: RXF 393
[6] = system: TK-10
[7] = system: SW-620
[8] = system: UACC-62
[9] = system: K562
[10] = system: HCT-15
[11] = system: NCI-H226
[12] = system: OVCAR-8
[13] = system: CAKI-1
[14] = system: OVCAR-4
[15] = system: UACC-257
[16] = system: SK-OV-3

COC1=C(C)C(=O)c2c(cc3c(c2O)C(C)(CCC=C(C)C)C(C)O3)C1=O (stereo not drawn)
GI50 [1]: > 100 µM (inactive) | GI50 [2]: > 100 µM (inactive) | GI50 [3]: 20 µM (inactive) | GI50 [4]: > 100 µM (inactive) | GI50 [5]: > 100 µM (inactive) | GI50 [6]: > 100 µM (inactive) | GI50 [7]: > 100 µM (inactive) | GI50 [8]: 22.3 µM (inactive) | GI50 [9]: > 54.8 µM (inactive) | GI50 [10]: 27.4 µM | GI50 [11]: 17.6 µM (inactive) | GI50 [12]: > 100 µM (inactive) | GI50 [13]: > 100 µM (inactive) | GI50 [14]: > 100 µM (inactive) | GI50 [15]: > 72.9 µM (inactive) | GI50 [16]: > 100 µM (inactive)

COc1cc(Nc2cnc3ccc(N)cc3n2)cc(OC)c1OC
GI50 [1]: > 100 µM (inactive) | GI50 [2]: 50.1 µM (inactive) | GI50 [3]: > 100 µM (inactive) | GI50 [4]: 79.3 µM (inactive) | GI50 [5]: 45.3 µM (inactive) | GI50 [6]: > 83.6 µM (inactive) | GI50 [7]: > 100 µM (inactive) | GI50 [8]: 69.3 µM (inactive) | GI50 [9]: 18.5 µM (inactive) | GI50 [10]: 69.2 µM | GI50 [11]: > 100 µM (inactive) | GI50 [12]: > 100 µM (inactive) | GI50 [13]: 59.2 µM (inactive) | GI50 [14]: > 100 µM (inactive) | GI50 [15]: > 57 µM (inactive) | GI50 [16]: > 86.9 µM (inactive)

CC(=O)O/N=C/c1ncccc1CO
GI50 [1]: > 100 µM (inactive) | GI50 [2]: > 100 µM (inactive) | GI50 [3]: > 100 µM (inactive) | GI50 [4]: > 100 µM (inactive) | GI50 [5]: > 100 µM (inactive) | GI50 [6]: > 100 µM (inactive) | GI50 [7]: > 100 µM (inactive) | GI50 [8]: > 100 µM (inactive) | GI50 [9]: > 100 µM (inactive) | GI50 [10]: > 100 µM | GI50 [11]: > 100 µM (inactive) | GI50 [12]: > 100 µM (inactive) | GI50 [13]: > 100 µM (inactive) | GI50 [14]: > 100 µM (inactive) | GI50 [15]: > 100 µM (inactive) | GI50 [16]: > 100 µM (inactive)
